From patent publication US20230027066A1 (Urovant Sciences GmbH, priority 2019, published 2023)

What was measured:
[1] = Phase 3 study (75 mg), adverse events; assay type: in vivo, human
Description: Study assessments of safety included adverse events, physical examinations, vital signs (and weight), and clinical laboratory tests
An adverse event is any untoward medical occurrence in a patient or clinical investigation patient, temporally associated with the use of a medicinal product, whether or not considered related to the medicinal product.
Adverse Events of Clinical Interest for this study included:
Safety analyses were conducted using the SAF and summarized by treatment group as treated. The treatment-emergent period is defined as the period of time from the first dose date of the double blinded Study Treatment through 28 days after the last dose of Study Treatment, or the date of initiation of another investigational agent or surgical intervention or rollover to the extension study, whichever occurs first. Safety was assessed through summaries of adverse events, the frequency of treatment discontinuations due to adverse events, and clinical laboratory evaluations.

men and women with OAB = assay: Phase 2b study of vibegron in OAB, Part 1, efficacy at Week 8 (voiding diary); assay type: in vivo, human; conditions: for Total incontinence episodes: adjusted difference from placebo at Week 8, difference in LS means (MMRM) / Total incontinence episodes: difference from placebo at Week 8, difference in LS means (cLDA) / Urgency incontinence episodes: adjusted difference from placebo at Week 8, difference in LS means (MMRM) / Urgency incontinence episodes: difference from placebo at Week 8, difference in LS means (cLDA): OAB Wet subjects
Source text: Part 2 was designed to continue to assess the safety and efficacy of concomitant dosing. […] Subjects in both Part 1 and Part 2 had the option of enrolling in a 1-year extension. Participants were required to keep a voiding diary, recording the occurrence of each strong urge, total incontinence, and urge incontinence episode. Efficacy data for Part 1 and Part 2 are summarized herein.
The total number of urgency incontinence episodes must have exceeded the total number of stress incontinence episodes for all subjects.

O=C(Nc1ccc(C[C@@H]2CC[C@H]([C@H](O)c3ccccc3)N2)cc1)[C@@H]1CCc2nccc(=O)n21 [Vibegron, (6S)-N-[4-[[(2S,5R)−5-[(R)-hydroxy(phenyl)methyl]pyrrolidin−2-yl]methyl]phenyl]−4-oxo−7,8-dihydro−6H-pyrrolo[1,2-a]pyrimidine−6-carboxamide]
AE: ALT increase ([1]; 12-week study): 1 (0.2) n (%) | AE: AST increase ([1]; 12-week study): 1 (0.2) n (%) | AE: Atrial fibrillation ([1]; 12-week study): 1 (0.2) n (%) | AE: Bilirubin increased ([1]; 12-week study): 0 n (%) | AE: Blood creatinine increased ([1]; 12-week study): 1 (0.2) n (%) | AE: Blood pressure diastolic increased ([1]; 12-week study): 0 n (%) | AE: Blood pressure increased ([1]; 12-week study): 4 (0.7) n (%) | AE: Cardiac failure congestive ([1]; 12-week study): 1 (0.2%) n (%) | AE: Cerebrovascular accident ([1]; 12-week study): 1 (0.2) n (%) | AE: Chest discomfort ([1]; 12-week study): 4 (0.7) n (%) | AE: Chest pain ([1]; 12-week study): 0 n (%) | AE: Chronic kidney disease ([1]; 12-week study): 1 (0.2) n (%) | AE: Constipation ([1]; 12-week study): 9 (1.7) n (%) | AE: Cystitis ([1]; 12-week study): 1 (0.2) n (%) | AE: Diarrhea ([1]; 12-week study): 12 (2.2) n (%) | AE: Dizziness ([1]; 12-week study): 5 (0.9) n (%) | AE: Drug hypersensitivity ([1]; 12-week study): 2 (0.4) n (%) | AE: Dry mouth ([1]; 12-week study): 9 (1.7) n (%) | AE: Dysuria ([1]; 12-week study): 0 n (%) | AE: Escherichia urinary-tract infection ([1]; 12-week study): 0 n (%) | AE: Fatigue ([1]; 12-week study): 2 (0.4) n (%) | AE: Glomerular filtration rate decreased ([1]; 12-week study): 1 (0.2) n (%) | AE: Headache ([1]; 12-week study): 22 (4.0) n (%) | AE: Hepatic enzyme increased ([1]; 12-week study): 0 n (%) | AE: Hot flush ([1]; 12-week study): 4 (0.7) n (%) | AE: Hyperglycemia ([1]; 12-week study): 3 (0.6) n (%) | AE: Hypertension ([1]; 12-week study): 9 (1.7) n (%) | AE: Hypotension ([1]; 12-week study): 1 (0.2) n (%) | AE: Nasopharyngitis ([1]; 12-week study): 15 (2.8) n (%) | AE: Nausea ([1]; 12-week study): 12 (2.2) n (%) | AE: Pollakiuria ([1]; 12-week study): 0 n (%) | AE: Positional vertigo ([1]; 12-week study): 0 n (%) | AE: Residual urine volume increased ([1]; 12-week study): 4 (0.7) n (%) | AE: Somnolence ([1]; 12-week study): 2 (0.4) n (%) | AE: Syncope ([1]; 12-week study): 0 n (%) | AE: Tachycardia ([1]; 12-week study): 0 n (%) | AE: Transaminases increased ([1]; 12-week study): 1 (0.2) n (%) | AE: Type 2 diabetes mellitus ([1]; 12-week study): 2 (0.4) n (%) | AE: Urinary retention ([1]; 12-week study): 3 (0.6) n (%) | AE: Urinary tract infection ([1]; 12-week study): 27 (5.0) n (%) | AE: Vertigo ([1]; 12-week study): 1 (0.2) n (%) | AE: Back pain ([1]; patients ≥75 years): 2.7% | AE: Diarrhea ([1]; patients ≥75 years): 4.0% | AE: Dyspnea ([1]; patients ≥75 years): 4.0% | AE: Nausea ([1]; patients ≥75 years): 2.7% | AE: Rash ([1]; patients ≥75 years): 2.7% | AE: Somnolence ([1]; patients ≥75 years): 2.7% | AE: Upper respiratory tract infection ([1]; patients ≥75 years): 4.0% | AE: Urinary retention ([1]; patients ≥75 years): 2.7% | AE: Urinary tract infection ([1]; patients ≥75 years): 8.0% | Overall AE rate ([1]; patients ≥75 years): 49.3% | Any AE of clinical interest, % ([1]; safety population): (6.6%) | Patients with at least one treatment emergent serious AEs, % ([1]; safety population): (1.5) % | SAEs considered treatment-related by the investigator, % ([1]; safety population): (0.4) % | SAEs: Hospitalization, % ([1]; safety population): (1.3) % | SAEs: other serious criteria, % ([1]; safety population): (0.4) % | Patients with at least one treatment emergent adverse events, % ([1]; safety population, 12-week study): (38.7) % | Patients with at least one Serious AE ([1]; vibegron 75 mg or tolterodine ER 4 mg once daily, 12 weeks): 1.5% | Micturitions: adjusted difference from placebo at Week 8, difference in LS means (MMRM) (men and women with OAB; vibegron 3 mg): −0.5 | Micturitions: difference from placebo at Week 8, difference in LS means (cLDA) (men and women with OAB; vibegron 3 mg): −0.46 | Urgency episodes: adjusted difference from placebo at Week 8, difference in LS means (MMRM) (men and women with OAB; vibegron 3 mg): −0.2 | Urgency episodes: difference from placebo at Week 8, difference in LS means (cLDA) (men and women with OAB; vibegron 3 mg): −0.18 | Total incontinence episodes: adjusted difference from placebo at Week 8, difference in LS means (MMRM) (men and women with OAB; vibegron 3 mg): −0.1 | Total incontinence episodes: difference from placebo at Week 8, difference in LS means (cLDA) (men and women with OAB; vibegron 3 mg): −0.18 | Urgency incontinence episodes: adjusted difference from placebo at Week 8, difference in LS means (MMRM) (men and women with OAB; vibegron 3 mg): −0.2 | Urgency incontinence episodes: difference from placebo at Week 8, difference in LS means (cLDA) (men and women with OAB; vibegron 3 mg): −0.28 | Micturitions: adjusted difference from placebo at Week 8, difference in LS means (MMRM) (men and women with OAB; vibegron 15 mg): −0.5 | Micturitions: difference from placebo at Week 8, difference in LS means (cLDA) (men and women with OAB; vibegron 15 mg): −0.45 | Urgency episodes: adjusted difference from placebo at Week 8, difference in LS means (MMRM) (men and women with OAB; vibegron 15 mg): −0.7 | Urgency episodes: difference from placebo at Week 8, difference in LS means (cLDA) (men and women with OAB; vibegron 15 mg): −0.67 | Total incontinence episodes: adjusted difference from placebo at Week 8, difference in LS means (MMRM) (men and women with OAB; vibegron 15 mg): −0.4 | Total incontinence episodes: difference from placebo at Week 8, difference in LS means (cLDA) (men and women with OAB; vibegron 15 mg): −0.48 | Urgency incontinence episodes: adjusted difference from placebo at Week 8, difference in LS means (MMRM) (men and women with OAB; vibegron 15 mg): −0.6 | Urgency incontinence episodes: difference from placebo at Week 8, difference in LS means (cLDA) (men and women with OAB; vibegron 15 mg): −0.57 | Micturitions: adjusted difference from placebo at Week 8, difference in LS means (MMRM) (men and women with OAB; vibegron 50 mg): −0.7 | Micturitions: difference from placebo at Week 8, difference in LS means (cLDA) (men and women with OAB; vibegron 50 mg): −0.64 | Urgency episodes: adjusted difference from placebo at Week 8, difference in LS means (MMRM) (men and women with OAB; vibegron 50 mg): −0.8 | Urgency episodes: difference from placebo at Week 8, difference in LS means (cLDA) (men and women with OAB; vibegron 50 mg): −0.76 | Total incontinence episodes: adjusted difference from placebo at Week 8, difference in LS means (MMRM) (men and women with OAB; vibegron 50 mg): −0.5 | Total incontinence episodes: difference from placebo at Week 8, difference in LS means (cLDA) (men and women with OAB; vibegron 50 mg): −0.60
